# “Also recorded” adds a separate entry of the source.
# Key:
# [1] = cited from earlier work
# [2] = RepliGut human jejunal organoid-derived monolayer permeability assay; details: human
# [3] = test system: human intestinal organoid-derived monolayer (RepliGut); test: as above
# [4] = gMDCK (P-gp knockout MDCK) monolayer permeability assay; details: dog, MDCK
# BCRP = molecular target: T1, BCRP (Homo sapiens, UniProt Q9UNQ0); test: Bidirectional permeability in gMDCK cells overexpressing human BCRP (gMDCK-BCRP); type: in vitro ADME
# T1 construct: expressed in transfected cells; host or cells: gMDCK (P-gp-knockout Madin-Darby Canine Kidney cells), puromycin selection
# T1 sequence (Q9UNQ0 1-655): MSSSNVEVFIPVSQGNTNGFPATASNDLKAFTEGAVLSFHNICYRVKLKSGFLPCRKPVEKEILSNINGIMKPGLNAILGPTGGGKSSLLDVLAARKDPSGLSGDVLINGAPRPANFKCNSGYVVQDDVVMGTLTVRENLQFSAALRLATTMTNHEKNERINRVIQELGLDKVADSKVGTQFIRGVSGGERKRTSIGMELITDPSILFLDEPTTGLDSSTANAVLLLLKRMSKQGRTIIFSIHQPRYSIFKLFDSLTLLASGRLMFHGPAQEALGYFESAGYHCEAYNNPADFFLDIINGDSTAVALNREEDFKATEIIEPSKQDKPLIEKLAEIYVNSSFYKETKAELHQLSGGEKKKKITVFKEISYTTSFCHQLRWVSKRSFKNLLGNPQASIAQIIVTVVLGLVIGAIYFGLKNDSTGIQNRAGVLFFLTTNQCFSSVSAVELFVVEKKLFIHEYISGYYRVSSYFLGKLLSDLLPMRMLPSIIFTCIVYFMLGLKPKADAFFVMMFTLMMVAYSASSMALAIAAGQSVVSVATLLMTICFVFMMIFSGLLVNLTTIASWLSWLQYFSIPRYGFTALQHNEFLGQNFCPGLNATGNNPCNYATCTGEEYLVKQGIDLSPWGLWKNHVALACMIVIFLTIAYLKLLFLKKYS
# Description: gMDCK cells were maintained in Dulbecco’s Modified Eagle’s Medium (DMEM) supplemented with Gibco’s MEM amino acids solution (1 X), penicillin (100 units/mL), streptomycin ([…]), and 10% fetal bovine serum and in a humidified, 37 °C, 5% CO2 environment as previously described. Efflux transporter-expressing gMDCK cells, gMDCK-P-gp and gMDCK-BCRP, were cultured in the above-mentioned medium with addition of puromycin (2 µg/mL). All cells were passaged at approximately 80% confluency in T-175 flasks. For permeability assays, gMDCK, gMDCK-P-gp, and gMDCK-BCRP cells were seeded on 96 transwell plates (approximately 40,000 cells/well) and allowed to grow for 48 h in a 37 °C, 5% CO2 environment. Digitonin (10–40 mg/L) was included in some experiments to loosen tight junctions to explore paracellular permeability. TEER values were measured on the day of the experiment using an EVOM^TM Auto (World Precision Instruments, Sarasota, FL, USA).
# Lenalidomide dosing solutions (1–500 µM) were diluted from DMSO stock (500 mM) with HEPES-buffered HBSS (with Ca^2+ and Mg^2+, 10 mM HEPES, pH 7.4) + 20 µM Lucifer yellow resulting in a final DMSO content of 0.2%. Lucifer yellow was measured fluorometrically (Ex/Em 428/532 nm) to assess tight junctions/paracellular transport. Permeability of lenalidomide was assessed bidirectionally in both in vitro models over three hours, and cell monolayers were collected at the end of the experiment.
# Briefly, for assessing apical to basolateral (A to B) permeability, 150 uL of lenalidomide dosing solutions was added to apical side of the transwell, and 250 uL of HEPES-buffered HBSS without Lucifer yellow was added to basolateral side. For evaluating basolateral to apical (B to A) permeability, 250 uL of dosing solutions was added to the basolateral side, and 150 uL of HEPES-buffered HBSS without Lucifer yellow was added to the apical side. An amount of 10 µL was sampled from the dosing side of the transwell at the beginning and the end of the experiment. An amount of 25 µL was sampled from the receiver side at 1, 2, and 3 h.
# Apparent permeability (Papp) was calculated according to the following equation: Papp = (dQ/dt)/(A * C), where dQ/dt is the amount of drug that crosses the membrane per unit of time, A is the surface area of the membrane through which the drug is permeating (0.143 cm^2), and C is the initial concentration added to cells. The efflux ratio was calculated according to the following equation:(4) Efflux ratio= Papp basolateral to apical/Papp apical to basolateral
# [5] = pH 7.4, with elacridar + Ko143 (concentrations not given)
# [6] = Lenalidomide Permeability in gMDCK Cells, FaSSIF
# [7] = Lenalidomide Permeability in gMDCK Cells, FeSSIF
# [8] = pH 7.4, Lenalidomide Permeability in gMDCK Cells, 4% BSA in receiver compartment
# [9] = pH 7.4, Lenalidomide Permeability in gMDCK Cells, shaking (1000 rpm)
# [10] = pH 7.4, Lenalidomide Permeability in gMDCK Cells, typical assay conditions
smiles,measurement,setting,value
Nc1cccc2c1CN(C1CCC(=O)NC1=O)C2=O (centres unmarked) [Lenalidomide],Human Fa (fraction absorbed),[1],90% [21]
same,Elimination half-life,[1]; humans,3 to 5 h
same,Metabolism,[1]; humans,< 5%
same,Oral bioavailability,[1]; humans,> 90%
same,Route of elimination,[1]; humans,Renal
same,Papp A→B at 3 h,[2]; pH 7.4,0.58 ×10⁻⁶ cm/s
same,Papp B→A at 3 h,[2]; pH 7.4,2.64 ×10⁻⁶ cm/s
same,Papp at 3 h,[2]; pH 7.4,~0.6 ×10⁻⁶ cm/s
same,"Papp at 3 h, 500 µM",[2]; pH 7.4,0.58 ×10⁻⁶ cm/s
same,efflux ratio at 3 h,"[2]; pH 7.4, Efflux Ratio, human jejunal organoids, Papp B to A/Papp A to B",4.6
same,efflux ratio at 3 h,"[2]; pH 7.4, efflux ratio, intestinal organoids, all concentrations",3 to 4
same,efflux ratio at 3 h,"[2]; pH 7.4, with elacridar 5 µM + Ko143 1 µM, Efflux Ratio, human jejunal organoids + elacridar (5 μM) + Ko143 (1 μM)",~1
same,Papp A→B at 3 h,[2]; [5],0.52 ×10⁻⁶ cm/s
same,Papp B→A at 3 h,[2]; [5],0.8 ×10⁻⁶ cm/s
same,Efflux Substrate,[3]; Yes/No,Yes
same,intracellular concentrations in intestinal organoids with and without elacridar,[3]; apical dosing,similar
same,"accumulation in cells, gMDCK vs organoids",[3]; basolateral dosing,greater in gMDCK cells than organoids
same,"intracellular accumulation in organoids, lower than gMDCK",[3]; basolateral to apical direction,approximately 10 fold
same,"accumulation in the cellular compartment, organoid vs gMDCK monolayers",[3]; dosed apically,no significant difference
same,apical to basolateral apparent permeability in intestinal organoids compared with gMDCK monolayers,[3]; organoid vs gMDCK,significantly higher
same,basolateral to apical permeability in intestinal organoids compared with gMDCK cells,[3]; organoid vs gMDCK,significantly higher
same,"Papp at 3 h, 10 µM",[4]; [6],0.27 ×10⁻⁶ cm/s
same,"Papp at 3 h, 50 µM",[4]; [6],0.28 ×10⁻⁶ cm/s
same,"Papp at 3 h, 250 µM",[4]; [6],0.17 ×10⁻⁶ cm/s
same,"Papp at 3 h, 500 µM","[4]; Lenalidomide Permeability in gMDCK Cells, FaSSIF, 500 uM",0.13 ×10⁻⁶ cm/s
same,"Papp at 3 h, 10 µM",[4]; [7],0.07 ×10⁻⁶ cm/s
same,"Papp at 3 h, 50 µM",[4]; [7],0.14 ×10⁻⁶ cm/s
same,"Papp at 3 h, 250 µM",[4]; [7],0.1 ×10⁻⁶ cm/s
same,"Papp at 3 h, 500 µM","[4]; Lenalidomide Permeability in gMDCK Cells, FeSSIF, 500 uM",0.14 ×10⁻⁶ cm/s
same,Papp A→B at 3 h,[4]; pH 7.4,0.21 ×10⁻⁶ cm/s
same,Papp B→A at 3 h,[4]; pH 7.4,0.13 ×10⁻⁶ cm/s
same,efflux ratio at 3 h,[4]; pH 7.4,0.62
same,"Papp at 3 h, 10 µM",[4]; [8],0.12 ×10⁻⁶ cm/s
same,"Papp at 3 h, 50 µM",[4]; [8],0.16 ×10⁻⁶ cm/s
same,"Papp at 3 h, 250 µM",[4]; [8],0.15 ×10⁻⁶ cm/s
same,"Papp at 3 h, 500 µM","[4]; pH 7.4, Lenalidomide Permeability in gMDCK Cells, 4% BSA in receiver compartment, 500 uM",0.15 ×10⁻⁶ cm/s
same,"Papp at 3 h, 10 µM",[4]; [9],0.03 ×10⁻⁶ cm/s
same,"Papp at 3 h, 50 µM",[4]; [9],0.03 ×10⁻⁶ cm/s
same,"Papp at 3 h, 250 µM",[4]; [9],0.14 ×10⁻⁶ cm/s
same,"Papp at 3 h, 500 µM","[4]; pH 7.4, Lenalidomide Permeability in gMDCK Cells, shaking (1000 rpm), 500 uM",0.21 ×10⁻⁶ cm/s
same,"Papp at 3 h, 10 µM",[4]; [10],0.19 ×10⁻⁶ cm/s
same,"Papp at 3 h, 50 µM",[4]; [10],0.22 ×10⁻⁶ cm/s
same,"Papp at 3 h, 250 µM",[4]; [10],0.24 ×10⁻⁶ cm/s
same,"Papp at 3 h, 500 µM","[4]; pH 7.4, Lenalidomide Permeability in gMDCK Cells, typical assay conditions, 500 uM",0.24 ×10⁻⁶ cm/s
same,Papp at 3 h,"[4]; pH 7.4, apparent permeability (Papp), gMDCK cell monolayers, independent of concentration",~0.2 ×10⁻⁶ cm/s
same,"Papp at 3 h, 500 µM","[4]; pH 7.4, gMDCK Papp, lenalidomide 500 µM, apical to basolateral, n=3 biological replicates",0.21 ×10⁻⁶ cm/s
same,BCRP substrate,BCRP; gMDCK BCRP overexpressing cells and organoids,substrate for both transporters; also recorded: substrate of both P-gp and BCRP
same,Papp A→B at 3 h,"BCRP; human, pH 7.4, gMDCK-BCRP",0.15 ×10⁻⁶ cm/s
same,Papp B→A at 3 h,"BCRP; human, pH 7.4, gMDCK-BCRP",2.4 ×10⁻⁶ cm/s
same,efflux ratio at 3 h,"BCRP; human, pH 7.4, gMDCK-BCRP",16

# Source: publication PMC12473906, “Comparing the Altis RepliGut Organoid System to MDCK Monolayers in Predicting the Oral Absorption of Lenalidomide” (Pharmaceutics, 2025)
